Laboratory results published in PubChem BioAssay (NCI).
“And” between values parts separate entries of the source, which are not always exact repeats. Equal values may be shown once.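 Interpolation was linear, between the two tested concentrations surrounding the appropriate level; five concentrations were tested over 48 hours in 96-well plates. Here, GI50 denotes the concentration required for 50% inhibition of growth. The concentration for full growth arrest is given as TGI.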

Tests used:
Assay in all cases: NCI tumour cell line growth inhibition, 48 h
BT-549 breast = test system: BT-549 breast
NCI-H460 lung = test system: NCI-H460 lung
CAKI-1 renal = test system: CAKI-1 renal
MDA-MB-231 breast = test system: MDA-MB-231 breast
RXF 393 renal = test system: RXF 393 renal
OVCAR-3 ovarian = test system: OVCAR-3 ovarian
K-562 leukemia = test system: K-562 leukemia
OVCAR-5 ovarian = test system: OVCAR-5 ovarian
XF 498 CNS = test system: XF 498 CNS
M19-MEL melanoma = test system: M19-MEL melanoma

Molecule | GI50 (BT-549 breast) | TGI (BT-549 breast) | GI50 (NCI-H460 lung) | TGI (NCI-H460 lung) | GI50 (CAKI-1 renal) | TGI (CAKI-1 renal) | GI50 (MDA-MB-231 breast) | TGI (MDA-MB-231 breast) | GI50 (RXF 393 renal) | TGI (RXF 393 renal) | GI50 (OVCAR-3 ovarian) | TGI (OVCAR-3 ovarian) | GI50 (K-562 leukemia) | TGI (K-562 leukemia) | GI50 (OVCAR-5 ovarian) | TGI (OVCAR-5 ovarian) | TGI (XF 498 CNS) | TGI (M19-MEL melanoma) | GI50 (XF 498 CNS)
O=C(Nc1cccc(C(F)(F)F)c1)c1cc2ccccc2cc1O | 1.27 µM | 6.09 µM | 1.41 µM | > 44.1 µM | 0.345 µM | 1.22 µM | 2.08 µM | 7.08 µM | 3.3 µM | > 30.4 µM | 0.783 µM | 6.1 µM | 0.487 µM | > 100 µM | 3.5 µM | > 100 µM |  |  | 
Nc1nc(N)c2c(n1)NC(c1sc(Cl)nc1Cl)CC(c1ccc3c(c1)OCO3)=N2 (stereo unspecified) | 3.79 µM | 18.9 µM | 3.99 µM | 18.1 µM | 3.17 µM | > 100 µM | 5.81 µM | 22.3 µM | 1.4 µM | 6.61 µM | 3.94 µM | 17.4 µM | 0.542 µM | > 100 µM | 6.03 µM | 33 µM |  |  | 
Cc1ccc(-c2n[nH]c(=O)c3noc(-c4ccc(C)cc4)c23)cc1 | 1.33 µM | 12.8 µM | 0.751 µM | 25 µM | 2.27 µM | > 100 µM | 1.77 µM | 39.8 µM | 0.419 µM | 2.08 µM | 1 µM | 3.41 µM | 0.383 µM | > 100 µM | 5.99 µM | > 100 µM |  |  | 
O=C1C=Cc2ncccc2C1=O |  |  |  | 38.2 µM |  | 48.9 µM |  |  |  | 35.9 µM |  | 46.9 µM |  | 26.4 µM |  | > 58 µM | 39.3 µM |  | 
CCN(CC)Cc1cc(Nc2c3ccccc3nc3cc(Cl)ccc23)ccc1O | 1.95 µM | 3.48 µM | 1.62 µM | 4.8 µM | 1.87 µM | 4.73 µM | 1.73 µM | 3.59 µM | 1.28 µM | 2.58 µM | 1.74 µM | 3.28 µM | 1.69 µM | 39 µM | 2.42 µM | 6.66 µM |  |  | 
COc1cccc(NC2=C(Cl)C(=O)N(Cc3ccc(Cl)cc3)C2=O)c1 | 0.655 µM | 4.18 µM | 2.93 µM | 18.5 µM | 2.25 µM | 17.5 µM | 2.15 µM |  | 0.788 µM | 6.26 µM | 1.62 µM | 7.89 µM | 0.801 µM | > 46.3 µM | 10 µM | 43.2 µM |  |  | 
O=C(/C=C/c1cccc2ccccc12)Nc1ncc(Cc2ccccc2)s1 | 2.44 µM | > 100 µM | 0.861 µM | 5.19 µM | 0.609 µM | 3.71 µM | 2 µM | > 40.3 µM | 0.436 µM | 1.66 µM | 0.738 µM | 3.22 µM | 0.397 µM | > 100 µM | 1.98 µM | > 100 µM |  |  | 
CC(/C=N/N=C(N)N)=N\N=C(N)N | 40.9 µM | 928 µM | 26.3 µM | 201 µM | 51.7 µM and 15.7 µM | 1010 µM | 7.67 µM | 965 µM | > 45.6 µM | 734 µM | 11.1 µM | 130 µM | 23.1 µM | 785 µM | 41 µM and 19.4 µM | 347 µM | 12 µM |  | 
N#CC(C(=O)CCCC(=O)Nc1ccc(Cl)cc1Cl)c1ccc(Cl)cc1 (stereo unspecified) |  |  |  | > 100 µM |  | > 100 µM |  |  |  |  |  | > 100 µM |  | > 100 µM |  | > 100 µM | > 100 µM |  | 
O=c1[nH]cc(C(F)(C(F)(F)F)C(F)(F)F)c(=O)[nH]1 |  |  |  | > 100 µM |  | > 100 µM |  |  |  | > 100 µM |  | > 100 µM |  | > 100 µM |  | > 100 µM | > 100 µM | > 100 µM | 
Cc1c2ccncc2c(C)c2c1[nH]c1ccc(Cl)cc12 |  |  | 3.08 µM | 4.46 µM and 12.2 µM | 0.602 µM and 5.24 µM |  |  |  |  | 9.91 µM | 4.62 µM | 5.71 µM and 16.6 µM | 1.21 µM | 3.67 µM and 3.79 µM | 4.32 µM | 16.6 µM and 16.3 µM | 9.43 µM and 2.71 µM | 7.93 µM and 8.98 µM | 1.41 µM
CCCN1CCC=C(c2ccc(Nc3nc(Nc4ccccc4C(N)=O)c4cc[nH]c4n3)c(C)c2)C1 | 17.2 µM | > 25 µM | 2.46 µM | > 25 µM | 9.49 µM | > 25 µM | > 16.6 µM | > 25 µM | 11 µM | > 25 µM | 17.9 µM | > 25 µM | 4.42 µM | > 22.8 µM | 4.01 µM | > 25 µM |  |  | 
S=c1c2ccccc2c(=S)n2n1CC=CC2 |  |  |  |  |  | > 100 µM |  |  |  | > 100 µM |  | > 100 µM |  | > 100 µM |  | > 100 µM |  | > 100 µM | 
c1ccc(-c2ccnc3c2ccc2c(-c4ccccc4)ccnc23)cc1 |  |  |  | 7.28 µM |  |  |  |  |  | 6.05 µM |  | 10.1 µM |  | 11.4 µM |  | 11.8 µM |  | 5.14 µM | 
H-QIYKKYRTWYRKAWKVLGKV-NH2 | 5.36 µM | 27.2 µM | 3.24 µM | 12.4 µM | 3.89 µM | 19 µM | 4.35 µM | 17.9 µM | 4.55 µM | 27.4 µM | 4.3 µM | 22.3 µM | 3.21 µM | > 100 µM | 8.79 µM | 22.5 µM |  |  | 
CC(C)N1C(C)[C@@H](c2ccccc2)O[P@]1(=O)CC1=CCCCC1 (stereo partly specified) |  |  |  | > 100 µM |  |  |  |  |  | > 100 µM |  | > 100 µM |  | > 100 µM |  | > 100 µM | > 100 µM | > 100 µM | 
COc1cccc2c1cc1c3c(cc4c(c32)OCO4)C(=O)N1 | 2.08 µM | 4.74 µM | 3.68 µM | 20.4 µM | 22.4 µM | > 100 µM | 7.9 µM | 47.2 µM | 2.04 µM | 5.5 µM | 2.5 µM | 5.58 µM | 8.89 µM | > 100 µM | 6.56 µM | > 100 µM |  |  | 
Cc1ccc(S(=O)(=O)NC(CO)C(=O)O)cc1 (stereo unspecified) |  | > 100 µM |  | > 100 µM |  | > 100 µM |  | > 100 µM |  | > 100 µM |  | > 100 µM |  | > 100 µM |  | > 100 µM |  |  | 
